Laboratory results: patent US6518303B2, “2-phenylpyran-4-one derivatives” (Almirall Prodesfarma S.A., priority 1999, dated 2003)

Key:
[1] = test system: intestinal ulcers and hematocrit in male Wistar rats; test: Ulcerogenic activity; format: in vivo, rat; set-up: key to Lesion index PU (perforated ulcers) / Lesion index NPU (non-perforated ulcers): 0:no ulcers; 1:<10 ulcers; 2:10-25 ulcers; 3:>25 ulcers; conditions: for Lesion index NPU (non-perforated ulcers) / Lesion index PU (perforated ulcers): index 0 to 3
Method: Animals: Male Wistar rate (Interfauna, U.K., Ltd.) weighing about 150-175 g were used. Animals were maintained on a 12:12 hour light-dark cycle (lights on at 7:00 am) at room temperature (22±1° C.). Food and water were allowed ad libitum.
Procedure: The compounds were administered by the oral route once a day for 4 consecutive days. The body weight of each rat was assessed every day before drug administration. The animals were anesthesized 24 h after the last dosing and 1 ml of blood was extracted by cardiac puncture using heparin (10 U/ml) as anticoagulant. The percentage of hematocrit was measured. The intestines were removed, opened longitudinally and gently washed. The macroscopic severity of the intestinal erosions was assessed using a parametric scale, evaluating the number of the perforated and non-perforated intestinal ulcers by means of a lesion index ranging from 0 to 3 (0:no ulcers, 1:<10 ulcers, 2:10-25 ulcers to 3:>25 ulcers). No gastric ulcers are observed using this protocol.
The treatments were randomized in each experiment. The results were compared with those obtained in the vehicle-treated group using the ANOVA test.

[2] = test system: adjuvant arthritis (hind paw volume) in male Wistar rats; test: Anti-inflammatory activity (adjuvant arthritis); format: in vivo, rat; conditions: dose 1 mg/kg p.o. once daily for 7 days (days 14-20), measured day 21
COX-2 = biological target: T1, COX-2 (Homo sapiens, UniProt P35354); test: COX-2 activity in human whole blood (PGE2, LPS-induced); format: cell-based; conditions: for IC50: human whole blood, LPS 10 μg/ml 24 h at 37° C., PGE2 ELISA; for Ratio COX-1/COX-2: ratio of whole blood IC50 values
T1 construct: incubated in the presence of LPS (10 μg/ml) for 24 h at 37° C. in order to induce The COX-2 expression; endogenous in cells; host or cells: fresh heparinized human whole blood, COX-2 induced with LPS for 24 h
T1 sequence (P35354 18-604): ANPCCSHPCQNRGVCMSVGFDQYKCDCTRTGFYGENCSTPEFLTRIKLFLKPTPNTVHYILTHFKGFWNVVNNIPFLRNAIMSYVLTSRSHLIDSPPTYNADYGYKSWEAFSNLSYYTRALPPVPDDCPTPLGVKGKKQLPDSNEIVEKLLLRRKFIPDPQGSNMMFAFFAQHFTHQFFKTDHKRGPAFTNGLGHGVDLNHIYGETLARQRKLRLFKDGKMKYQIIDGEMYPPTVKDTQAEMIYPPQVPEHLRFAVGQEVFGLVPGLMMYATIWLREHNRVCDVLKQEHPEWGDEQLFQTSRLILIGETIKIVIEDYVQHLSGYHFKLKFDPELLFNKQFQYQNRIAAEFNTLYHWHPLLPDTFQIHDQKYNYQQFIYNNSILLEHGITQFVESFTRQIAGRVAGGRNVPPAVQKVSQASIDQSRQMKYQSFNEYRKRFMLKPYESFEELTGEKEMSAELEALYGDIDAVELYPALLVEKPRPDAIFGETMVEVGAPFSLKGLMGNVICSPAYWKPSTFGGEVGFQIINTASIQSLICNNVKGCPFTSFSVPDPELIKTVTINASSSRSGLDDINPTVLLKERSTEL
Method: Plasma was separated by centrifugation (10 min at 13000 rpm.) and kept at −30° C. until PGE2 levels were measured using an enzyme immunoassay kit (ELISA). The effects of inhibitors were studied by incubating each compound (5 μl aliquots) at five to six different concentrations with triplicate determinations in the presence of LPS for 24 hours. IC50 values were obtained by non-linear regression using InPlot, GraphPad software on an IBM computer.

COX-1 = biological target: T2, COX-1 (Homo sapiens, UniProt P23219); test: COX-1 activity in human whole blood (TXB2, calcium ionophore A23187); format: cell-based; conditions: 1 h at 37° C., TXB2 ELISA
T2 construct: Fresh blood from healthy volunteers; endogenous in cells; host or cells: fresh heparinized human whole blood stimulated with calcium ionophore A23187
T2 sequence (P23219 24-599): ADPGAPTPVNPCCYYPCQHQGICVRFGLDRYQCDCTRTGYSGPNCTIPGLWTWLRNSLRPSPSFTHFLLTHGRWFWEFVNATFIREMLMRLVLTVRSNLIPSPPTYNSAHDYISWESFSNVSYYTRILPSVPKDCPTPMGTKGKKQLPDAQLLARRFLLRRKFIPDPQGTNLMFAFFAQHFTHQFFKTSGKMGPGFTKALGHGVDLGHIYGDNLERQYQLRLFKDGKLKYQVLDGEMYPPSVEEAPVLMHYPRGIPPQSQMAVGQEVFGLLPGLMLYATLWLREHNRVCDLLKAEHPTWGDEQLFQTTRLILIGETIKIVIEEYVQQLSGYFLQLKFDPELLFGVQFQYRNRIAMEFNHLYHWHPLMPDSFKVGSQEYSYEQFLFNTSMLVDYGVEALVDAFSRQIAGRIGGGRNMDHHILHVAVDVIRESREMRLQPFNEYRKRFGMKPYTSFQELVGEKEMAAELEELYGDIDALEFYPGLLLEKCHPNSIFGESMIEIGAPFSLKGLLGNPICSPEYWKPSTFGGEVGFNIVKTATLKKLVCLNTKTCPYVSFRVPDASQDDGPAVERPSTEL
Method: For the COX-1 activity determination, 500 μl aliquots of blood were incubated with either 5 μl vehicle (dimethylsulphoxide) or 5 μl of a test compound for 1 h at 37° C. […] Plasma was separated by centrifugation (10 min at 13000 rpm) and kept at −30° C. until TXB2 levels were measured using an enzyme immunoassay kit (ELISA). The effect of the compounds were evaluated by incubating each compound at five to six different concentrations with triplicate determinations. IC50 values were obtained by non-linear regression using InPlot, GraphPad software on an IBM computer.

[3] = dose 100 mg/kg oral once a day for 4 days
[4] = dose 10 mg/kg oral once a day for 4 days

| Structure (SMILES) | melting point | IC50 (COX-2) | Ratio COX-1/COX-2 (COX-2) | IC50 (COX-1) | Hematocrit [1, 3] | Lesion index NPU (non-perforated ulcers) [1, 3] | Lesion index PU (perforated ulcers) [1, 3] | % Inhibition of inflammation (paw volume) [2] | Hematocrit [1, 4] | Lesion index NPU (non-perforated ulcers) [1, 4] | Lesion index PU (perforated ulcers) [1, 4] |
| --- | --- | --- | --- | --- | --- | --- | --- | --- | --- | --- | --- |
| Cc1cc(=O)c(Cc2ccccc2)c(-c2ccc(S(C)(=O)=O)cc2)o1 [Compound 37] | 137 °C | 1080 nM | >92 | > 100000 nM | – | – | – | – | – | – | – |
| Cc1cc(=O)c(Oc2ccc(F)cc2)c(-c2ccc(S(C)(=O)=O)cc2)o1 [Compound 39, 3-(4-fluorophenoxy)-2-(4-methanesulfonylphenyl)-6-methylpyran-4-one] | 189 °C | 960 nM | >104 | > 100000 nM | 43.7 ± 0.4% | 0 | 0 | 75 (1) % | – | – | – |
| Cc1cc(=O)c(Oc2ccc(Cl)cc2)c(-c2ccc(S(C)(=O)=O)cc2)o1 [Compound 41] | – | 350 nM | >285 | > 100000 nM | 43.4 ± 1.9% | 0 | 0 | 71 (1) % | – | – | – |
| Cc1cc(=O)c(Oc2ccc(Br)cc2)c(-c2ccc(S(C)(=O)=O)cc2)o1 [Compound 43, 3-(4-bromophenoxy)-2-(4-methanesulfonylphenyl)-6-methylpyran-4-one] | 188 °C | 800 nM | 125 | > 100000 nM | – | – | – | – | – | – | – |
| CS(=O)(=O)c1ccc(-c2oc(C(F)F)cc(=O)c2-c2ccc(Cl)cc2)cc1 [Compound 67, 3-(4-chlorophenyl)-6-difluoromethyl-2-(4-methanesulfonylphenyl)pyran-4-one] | 168 to 170 °C | 2100 nM | >47 | > 100000 nM | – | – | – | – | – | – | – |
| COc1ccc2c(c1)c(CC(=O)O)c(C)n2C(=O)c1ccc(Cl)cc1 [Indomethacin, 1-(4-chlorobenzoyl)-5-methoxy-2-methylindole-3-acetic acid, reference compound] | – | – | – | – | – | – | – | 64 (1) % | 22.7 ± 1.6% | 3 (3:>25 ulcers) | 3 (3:>25 ulcers) |

Second part, led by results:

| melting point | IC50 (COX-2) | Ratio COX-1/COX-2 (COX-2) | IC50 (COX-1) | Structure (SMILES) | Hematocrit [1, 3] | Lesion index NPU (non-perforated ulcers) [1, 3] | Lesion index PU (perforated ulcers) [1, 3] | % Inhibition of inflammation (paw volume) [2] | Hematocrit [1, 4] | Lesion index NPU (non-perforated ulcers) [1, 4] | Lesion index PU (perforated ulcers) [1, 4] |
| --- | --- | --- | --- | --- | --- | --- | --- | --- | --- | --- | --- |
| 182 °C | 2100 nM | >47 | > 100000 nM | Cc1cc(=O)c(-c2ccc(Cl)cc2)c(-c2ccc(S(C)(=O)=O)cc2)o1 [Compound 5, 3-(4-chlorophenyl)-2-(4-methanesulfonylphenyl)-6-methylpyran-4-one] | 44.1 ± 0.7% | 0 | 0 | 50 (1) % | – | – | – |
| 156 °C | – | – | 37100 nM | Cc1cc(=O)c(-c2ccc(Cl)c(Cl)c2)c(-c2ccc(S(C)(=O)=O)cc2)o1 [Compound 22, 3-(3,4-dichlorophenyl)-2-(4-methanesulfonylphenyl)-6-methylpyran-4-one] | 44.4 ± 0.3% | – | – | 69 (1) % | – | – | – |
| 116 °C | 1670 nM | >59 | > 100000 nM | COc1ccc(-c2c(-c3ccc(S(C)(=O)=O)cc3)oc(C)cc2=O)cc1Cl [Compound 31] | – | – | – | – | – | – | – |
| 191 °C | 150 nM | 147 | 22000 nM | Cc1cc(=O)c(Oc2ccc(F)cc2F)c(-c2ccc(S(C)(=O)=O)cc2)o1 [Compound 45, 3-(2,4-difluorophenoxy)-2-(4-methanesulfonylphenyl)-6-methylpyran-4-one] | 44.4 ± 0.9% | 0 | 0 | 74 (1) % | – | – | – |
| 189 °C | 800 nM | 71 | 57100 nM | Cc1cc(=O)c(Oc2cc(F)ccc2F)c(-c2ccc(S(C)(=O)=O)cc2)o1 [Compound 47, 3-(2,5-difluorophenoxy)-2-(4-methanesulfonylphenyl)-6-methylpyran-4-one] | – | – | – | – | – | – | – |
